Source: patent publication US11225505B2, “Antimicrobial polymyxin derivative compounds” (MONASH UNIVERSITY, priority 2015, dated 2022)
Converted amounts (≈) assume the structure as drawn. Where a SMILES comes first, the peptide text is derived from it. Bridges are numbered along the chain shown (N, C = ends). [ ]: non-standard residue; d: D form. The star is where a group is joined. Isoxazole(3-CO,5-Ph) = O=C(c1cc(-c2ccccc2)on1)*; X20 = O=C(c1ccc(C(F)(F)F)s1)*; X11 = Cn1nc(C(=O)*)c2ccccc21; X32 = O=C(c1cnc(Cl)c(Cl)c1)*; dNva = CCC[C@@H](N)C(=O)O; X26 = CCc1ccc(C(=O)*)cn1; X29 = O=C(c1cc(Cl)ccn1)*; Dab = NCC[C@H](N)C(=O)O; Abu = CC[C@H](N)C(=O)O; Dap = NC[C@H](N)C(=O)O

Columns and labels:
Type in all cases: cell-based
[1] = system: Pseudomonas aeruginosa ATCC 27853; conditions: ATCC 27853
Summary of the method: (§1)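 Lipopeptide TFA salts were serially diluted in cation-adjusted Mueller-Hinton broth, inoculated with polymyxin-susceptible Gram-negative bacteria and scored for MIC according to CLSI guidance (M100-S24). Polymyxin B sulphate was included as comparator.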

[2] = system: Enterobacter cloacae FADDI-EC003; conditions: FADDI-EC003
Summary of the method: as §1

[3] = system: Pseudomonas aeruginosa FADDI-PA038; conditions: FADDI-PA038
Summary of the method: as §1

[4] = system: Klebsiella pneumoniae FADDI-KP022; conditions: FADDI-KP022
Summary of the method: as §1

[5] = system: Enterobacter cloacae FADDI-EC006; conditions: FADDI-EC006
Summary of the method: as §1

[6] = system: Acinetobacter baumannii FADDI-AB034; conditions: FADDI-AB034
Summary of the method: as §1

[7] = system: Klebsiella pneumoniae Kp BM1; conditions: Kp BM1
Summary of the method: (§2)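 Values are MICs of the lipopeptide trifluoroacetic acid salts. Dilution series were set up in CAMHB as CLSI M100-S24 specifies.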

[8] = system: Enterobacter cloacae FADDI-EC001; conditions: FADDI-EC001
Summary of the method: as §2

[9] = system: Pseudomonas aeruginosa FADDI-PA022; conditions: FADDI-PA022
Summary of the method: as §1

[10] = system: Klebsiella pneumoniae FADDI-KP032; conditions: FADDI-KP032
Summary of the method: as §1

[11] = system: Acinetobacter baumannii ATCC 17978; conditions: ATCC 17978
Summary of the method: as §1

[12] = system: Pseudomonas aeruginosa FADDI-PA01; conditions: FADDI-
Summary of the method: as §1

[13] = system: Acinetobacter baumannii FADDI-AB030; assay: microbe, parasite or virus in culture; conditions: FADDI-AB030
Summary of the method: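 Lipopeptide TFA salts tested against the multidrug-resistant clinical isolate by CLSI (M100-S24) broth microdilution in cation-adjusted Mueller-Hinton broth, with polymyxin B sulphate as control; MIC read.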

| Compound | Minimum inhibitory concentration [1] [µg/mL] | Minimum inhibitory concentration [2] [µg/mL] | Minimum inhibitory concentration [3] [µg/mL] | Minimum inhibitory concentration [4] [µg/mL] | Minimum inhibitory concentration [5] [µg/mL] | Minimum inhibitory concentration [6] [µg/mL] | Minimum inhibitory concentration [7] [µg/mL] | Minimum inhibitory concentration [8] [µg/mL] | Minimum inhibitory concentration [9] [µg/mL] | Minimum inhibitory concentration [10] [µg/mL] | Minimum inhibitory concentration [11] [µg/mL] | Minimum inhibitory concentration [12] [µg/mL] | Minimum inhibitory concentration [13] [µg/mL] |
| --- | --- | --- | --- | --- | --- | --- | --- | --- | --- | --- | --- | --- | --- |
| CC(C)C[C@H]1NC(=O)[C@H](CCN)NC(=O)[C@@H](NC(=O)[C@H](CN)NC(=O)[C@@H](NC(=O)[C@H](CCN)NC(=O)c2cc(Cl)ccn2)[C@@H](C)O)CCNC(=O)[C@H]([C@@H](C)O)NC(=O)[C@H](CCN)NC(=O)[C@H](CCN)NC(=O)[C@H](C)NC1=O [Compound 97] (X29-[Dab]T[Dap][Dab][Dab][dL]A[Dab][Dab]T; lactam 4-C) | 0.25 (≈ 0.225 µM) | 0.25 (≈ 0.225 µM) | 2 (≈ 1.8 µM) | <0.125 | 0.25 (≈ 0.225 µM) | 2 (≈ 1.8 µM) | 0.25 (≈ 0.225 µM) | <0.125 | 0.25 (≈ 0.225 µM) | 0.5 (≈ 0.449 µM) | 2 (≈ 1.8 µM) | 0.25 (≈ 0.225 µM) | 2 (≈ 1.8 µM) |
| CCC[C@H]1NC(=O)[C@H](CCN)NC(=O)[C@@H](NC(=O)[C@H](CN)NC(=O)[C@@H](NC(=O)[C@H](CCN)NC(=O)c2cc(Cl)ccn2)[C@@H](C)O)CCNC(=O)[C@H]([C@@H](C)O)NC(=O)[C@H](CCN)NC(=O)[C@H](CCN)NC(=O)[C@H](CC)NC1=O [Compound 96] (X29-[Dab]T[Dap][Dab][Dab][dNva][Abu][Dab][Dab]T; lactam 4-C) | 0.25 (≈ 0.225 µM) | 0.5 (≈ 0.449 µM) | 1 (≈ 0.899 µM) | 0.25 (≈ 0.225 µM) | 0.5 (≈ 0.449 µM) | 1 (≈ 0.899 µM) | 1 (≈ 0.899 µM) | 0.25 (≈ 0.225 µM) | 0.25 (≈ 0.225 µM) | 0.5 (≈ 0.449 µM) | 1 (≈ 0.899 µM) | 0.25 (≈ 0.225 µM) | 2 (≈ 1.8 µM) |
| CC[C@@H]1NC(=O)[C@@H](CC(C)C)NC(=O)[C@H](CCN)NC(=O)[C@@H](NC(=O)[C@H](CN)NC(=O)[C@@H](NC(=O)[C@H](CCN)NC(=O)c2nn(C)c3ccccc23)[C@@H](C)O)CCNC(=O)[C@H]([C@@H](C)O)NC(=O)[C@H](CCN)NC(=O)[C@H](CCN)NC1=O [Compound 51] (X11-[Dab]T[Dap][Dab][Dab][dL][Abu][Dab][Dab]T; lactam 4-C) | 0.25 (≈ 0.218 µM) | 0.25 (≈ 0.218 µM) | 1 (≈ 0.873 µM) | <0.125 | 0.5 (≈ 0.437 µM) | 0.25 (≈ 0.218 µM) | <0.125 | <0.125 | 0.25 (≈ 0.218 µM) | <0.125 | 0.25 (≈ 0.218 µM) | 0.25 (≈ 0.218 µM) | <0.125 |
| CC[C@@H]1NC(=O)[C@@H](CC(C)C)NC(=O)[C@H](CCN)NC(=O)[C@@H](NC(=O)[C@H](CN)NC(=O)[C@@H](NC(=O)[C@H](CCN)NC(=O)c2cc(-c3ccccc3)on2)[C@@H](C)O)CCNC(=O)[C@H]([C@@H](C)O)NC(=O)[C@H](CCN)NC(=O)[C@H](CCN)NC1=O [Compound 80] ({Isoxazole(3-CO,5-Ph)}-[Dab]T[Dap][Dab][Dab][dL][Abu][Dab][Dab]T; lactam 4-C) | 0.5 (≈ 0.432 µM) | 0.25 (≈ 0.216 µM) | 0.5 (≈ 0.432 µM) | <0.125 | 0.25 (≈ 0.216 µM) | 0.5 (≈ 0.432 µM) | 0.25 (≈ 0.216 µM) | 0.25 (≈ 0.216 µM) | 0.5 (≈ 0.432 µM) | 0.25 (≈ 0.216 µM) | 0.5 (≈ 0.432 µM) | 0.5 (≈ 0.432 µM) | 0.5 (≈ 0.432 µM) |
| CC[C@@H]1NC(=O)[C@@H](CC(C)C)NC(=O)[C@H](CCN)NC(=O)[C@@H](NC(=O)[C@H](CN)NC(=O)[C@@H](NC(=O)[C@H](CCN)NC(=O)c2cc(Cl)ccn2)[C@@H](C)O)CCNC(=O)[C@H]([C@@H](C)O)NC(=O)[C@H](CCN)NC(=O)[C@H](CCN)NC1=O [Compound 26] (X29-[Dab]T[Dap][Dab][Dab][dL][Abu][Dab][Dab]T; lactam 4-C) | 0.25 (≈ 0.222 µM) | <0.125 | 0.5 (≈ 0.444 µM) | <0.125 | 2 (≈ 1.78 µM) | 0.5 (≈ 0.444 µM) | 0.25 (≈ 0.222 µM) | 0.25 (≈ 0.222 µM) | 0.25 (≈ 0.222 µM) | 0.25 (≈ 0.222 µM) | 0.5 (≈ 0.444 µM) | 0.25 (≈ 0.222 µM) | 0.5 (≈ 0.444 µM) |
| CC[C@@H]1NC(=O)[C@@H](CC(C)C)NC(=O)[C@H](CCN)NC(=O)[C@@H](NC(=O)[C@H](CN)NC(=O)[C@@H](NC(=O)[C@H](CCN)NC(=O)c2cnc(Cl)c(Cl)c2)[C@@H](C)O)CCNC(=O)[C@H]([C@@H](C)O)NC(=O)[C@H](CCN)NC(=O)[C@H](CCN)NC1=O [Compound 5] (X32-[Dab]T[Dap][Dab][Dab][dL][Abu][Dab][Dab]T; lactam 4-C) | 1 (≈ 0.861 µM) | 0.5 (≈ 0.431 µM) | 0.5 (≈ 0.431 µM) | <0.125 | 1 (≈ 0.861 µM) | 0.5 (≈ 0.431 µM) | <0.25 | 0.25 (≈ 0.215 µM) | 1 (≈ 0.861 µM) | 0.25 (≈ 0.215 µM) | 1 (≈ 0.861 µM) | 0.25 (≈ 0.215 µM) | 0.5 (≈ 0.431 µM) |
| CCc1ccc(C(=O)N[C@@H](CCN)C(=O)N[C@H](C(=O)N[C@@H](CN)C(=O)N[C@H]2CCNC(=O)[C@H]([C@@H](C)O)NC(=O)[C@H](CCN)NC(=O)[C@H](CCN)NC(=O)[C@H](CC)NC(=O)[C@@H](CC(C)C)NC(=O)[C@H](CCN)NC2=O)[C@@H](C)O)cn1 [Compound 41] (X26-[Dab]T[Dap][Dab][Dab][dL][Abu][Dab][Dab]T; lactam 4-C) | 0.25 (≈ 0.223 µM) | <0.125 | 0.5 (≈ 0.446 µM) | <0.125 | 0.25 (≈ 0.223 µM) | 2 (≈ 1.79 µM) | <0.125 | <0.125 | <0.125 | <0.125 | 2 (≈ 1.79 µM) | 0.25 (≈ 0.223 µM) | 2 (≈ 1.79 µM) |
| CC[C@@H]1NC(=O)[C@@H](CC(C)C)NC(=O)[C@H](CCN)NC(=O)[C@@H](NC(=O)[C@H](CN)NC(=O)[C@@H](NC(=O)[C@H](CCN)NC(=O)c2ccc(C(F)(F)F)s2)[C@@H](C)O)CCNC(=O)[C@H]([C@@H](C)O)NC(=O)[C@H](CCN)NC(=O)[C@H](CCN)NC1=O [Compound 86] (X20-[Dab]T[Dap][Dab][Dab][dL][Abu][Dab][Dab]T; lactam 4-C) | 0.5 (≈ 0.429 µM) | 0.25 (≈ 0.215 µM) | 1 (≈ 0.858 µM) | <0.125 | 0.25 (≈ 0.215 µM) | <0.125 | 0.25 (≈ 0.215 µM) | <0.125 | 0.5 (≈ 0.429 µM) | <0.125 | <0.125 | 0.5 (≈ 0.429 µM) | 0.25 (≈ 0.215 µM) |
